Tests used:
[1] = system: ECHORC (Watergrass (Calif.)); assay: Preemergence weed control under flooded paddy conditions; type: in vivo, Echinochloa oryzoides; conditions: rated 3-4 weeks after treatment
In short: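 Silt loam, seeds in top 0.5 cm; flood held 1.5-3 cm; test cpd as acetone/water 50/50 into flood water, ~0.0313-0.500 kg/ha a.i.; greenhouse 3-4 wk; visual 0-9 score vs control.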

[2] = system: SAGPY (Arrowhead (Pygmaea)); assay: Postemergence weed control under flooded paddy conditions; type: in vivo, Sagittaria pygmaea; conditions: postemergence weeds, 3-4 weeks after treatment
In short: (§1)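 With weeds 3 to 5 cm tall and rice at the 1.5 to 2.5 leaf stage, containers were flooded and water held 1.5 to 3 cm above soil. Compounds in 50/50 v/v aqueous/acetone went into the flood water at about 0.0313 to 0.500 kg/ha a.i. Effects were visually rated 0–9 against controls after three to four weeks in the greenhouse.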

[3] = system: AMBEL (Ragweed, Common); assay: Postemergence herbicidal evaluation; type: in vivo, Ambrosia artemisifolia; conditions: postemergence
In short: (§2)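 Scores (0–9) reflect plant stand, vigor, malformation, size, chlorosis and general appearance relative to control, read 4 to 5 weeks after treatment and averaged where tests were repeated. Application: about 0.0156–0.500 kg/ha sprayed at 40 psi onto two-week seedlings.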

[4] = system: SAGPY (Arrowhead (Pygmaea)); assay: Preemergence weed control under flooded paddy conditions; type: in vivo, Sagittaria pygmaea; conditions: rated 3-4 weeks after treatment
In short: (§3)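 Values are visual 0-9 scores against a control for a preemergence application into paddy flood water at about 0.0313 to 0.500 kg/ha. Greenhouse duration was three to four weeks.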

[5] = system: ORYSAT (Rice, Tebonnet); assay: Preemergence herbicidal evaluation; type: in vivo, Oryza sativa, (L.) Tebonnet; conditions: rated 4-5 weeks after treatment
In short: (§4)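 Scores (0–9) reflect visual comparison with control plants for stand, vigor, malformation, size and chlorosis. Compound was applied to the soil after sowing, before emergence, as an aqueous acetone spray (about 0.0156–0.500 kg/ha), and cups were kept in a greenhouse for 4–5 weeks.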

[6] = system: GALAP (Galium); assay: Postemergence herbicidal evaluation; type: in vivo, Galium aparine; conditions: postemergence
In short: as §2

[7] = system: SETVI (Foxtail, Green); assay: Preemergence herbicidal evaluation; type: in vivo, Setaria viridis; conditions: rated 4-5 weeks after treatment
In short: as §4

[8] = system: CYPSE (Flatsedge); assay: Preemergence weed control under flooded paddy conditions; type: in vivo, Cyperus serotinus; conditions: rated 3-4 weeks after treatment
In short: as §3

[9] = system: CASOB (Sicklepod); assay: Postemergence herbicidal evaluation; type: in vivo, Cassia obtusifolia; conditions: postemergence
In short: as §2

[10] = system: GLXMAW (Soybean, Williams); assay: Postemergence herbicidal evaluation; type: in vivo, Glycine max, (L.) Merr. cv Williams; conditions: postemergence
In short: as §2

[11] = system: ECHORC (Watergrass (Calif.)); assay: Postemergence weed control under flooded paddy conditions; type: in vivo, Echinochloa oryzoides; conditions: postemergence weeds, 3-4 weeks after treatment
In short: as §1

[12] = system: MOOVA (Monochoria); assay: Preemergence weed control under flooded paddy conditions; type: in vivo, Monochoria vaginalis; conditions: rated 3-4 weeks after treatment
In short: as §3

[13] = system: TRZAWR (Wheat, Winter, cv Riband); assay: Postemergence herbicidal evaluation; type: in vivo, Triticum aestivum; conditions: postemergence
In short: as §2

[14] = system: GALAP (Galium); assay: Preemergence herbicidal evaluation; type: in vivo, Galium aparine; conditions: rated 4-5 weeks after treatment
In short: as §4

## C=CCN1C(=O)CSC1=Nc1cc(N2C(=O)C3=C(CCCC3)C2=O)c(F)cc1Cl [Compound 2, N-{5-[(3-allyl-4-oxo-2-thiazolidinylidene)amino]-4-chloro-2-fluorophenyl}-1-cyclohexene-1,2-dicarboximide]
[1]; 0.0313 kg/ha
  Herbicidal rating ECHORC: 2.0
[1]; 0.0625 kg/ha
  Herbicidal rating ECHORC: 2.0
[1]; 0.1250 kg/ha
  Herbicidal rating ECHORC: 7.0
[1]; 0.2500 kg/ha
  Herbicidal rating ECHORC: 8.0
[1]; 0.5000 kg/ha
  Herbicidal rating ECHORC: 9.0
[2]; rate 0.0313 kg/ha
  Herbicidal rating SAGPY: 0.0
[2]; rate 0.0625 kg/ha
  Herbicidal rating SAGPY: 0.0
[2]; rate 0.1250 kg/ha
  Herbicidal rating SAGPY: 0.0
[2]; rate 0.2500 kg/ha
  Herbicidal rating SAGPY: 0.0
[2]; rate 0.5000 kg/ha
  Herbicidal rating SAGPY: 1.0
[3]; rate 0.0157 kg/ha
  AMBEL herbicidal rating: 4.0
[3]; rate 0.0313 kg/ha
  AMBEL herbicidal rating: 2.0
[3]; rate 0.0625 kg/ha
  AMBEL herbicidal rating: 6.0
[3]; rate 0.1250 kg/ha
  AMBEL herbicidal rating: 2.0
[3]; rate 0.2500 kg/ha
  AMBEL herbicidal rating: 6.0
[3]; rate 0.5000 kg/ha
  AMBEL herbicidal rating: 9.0
[4]; 0.0313 kg/ha
  Herbicidal rating SAGPY: 0.0
[4]; 0.0625 kg/ha
  Herbicidal rating SAGPY: 0.0
[4]; 0.1250 kg/ha
  Herbicidal rating SAGPY: 0.0
[4]; 0.2500 kg/ha
  Herbicidal rating SAGPY: 0.0
[4]; 0.5000 kg/ha
  Herbicidal rating SAGPY: 0.0
[5]; rate 0.0313 kg/ha
  ORYSAT preemergence herbicidal rating: 2.0
[5]; rate 0.0625 kg/ha
  ORYSAT preemergence herbicidal rating: 2.0
[5]; rate 0.1250 kg/ha
  ORYSAT preemergence herbicidal rating: 2.0
[5]; rate 0.2500 kg/ha
  ORYSAT preemergence herbicidal rating: 2.0
[5]; rate 0.5000 kg/ha
  ORYSAT preemergence herbicidal rating: 3.0
[6]; rate 0.0157 kg/ha
  GALAP herbicidal rating: 4.0
[6]; rate 0.0313 kg/ha
  GALAP herbicidal rating: 8.0
[6]; rate 0.0625 kg/ha
  GALAP herbicidal rating: 4.0
[6]; rate 0.1250 kg/ha
  GALAP herbicidal rating: 4.0
[6]; rate 0.2500 kg/ha
  GALAP herbicidal rating: 4.0
[6]; rate 0.5000 kg/ha
  GALAP herbicidal rating: 4.0
[7]; rate 0.0313 kg/ha
  SETVI preemergence herbicidal rating: 0.0
[7]; rate 0.0625 kg/ha
  SETVI preemergence herbicidal rating: 0.0
[7]; rate 0.1250 kg/ha
  SETVI preemergence herbicidal rating: 6.0
[7]; rate 0.2500 kg/ha
  SETVI preemergence herbicidal rating: 6.0
[7]; rate 0.5000 kg/ha
  SETVI preemergence herbicidal rating: 9.0
[8]; 0.0313 kg/ha
  Herbicidal rating CYPSE: 0.0
[8]; 0.0625 kg/ha
  Herbicidal rating CYPSE: 0.0
[8]; 0.1250 kg/ha
  Herbicidal rating CYPSE: 0.0
[8]; 0.2500 kg/ha
  Herbicidal rating CYPSE: 0.0
[8]; 0.5000 kg/ha
  Herbicidal rating CYPSE: 0.0
[9]; rate 0.0157 kg/ha
  CASOB herbicidal rating: 4.0
[9]; rate 0.0313 kg/ha
  CASOB herbicidal rating: 4.0
[9]; rate 0.0625 kg/ha
  CASOB herbicidal rating: 2.0
[9]; rate 0.1250 kg/ha
  CASOB herbicidal rating: 2.0
[9]; rate 0.2500 kg/ha
  CASOB herbicidal rating: 4.0
[9]; rate 0.5000 kg/ha
  CASOB herbicidal rating: 7.0
[10]; rate 0.0157 kg/ha
  GLXMAW herbicidal rating: 3.5
[10]; rate 0.0313 kg/ha
  GLXMAW herbicidal rating: 3.5
[10]; rate 0.0625 kg/ha
  GLXMAW herbicidal rating: 3.5
[10]; rate 0.1250 kg/ha
  GLXMAW herbicidal rating: 3.0
[10]; rate 0.2500 kg/ha
  GLXMAW herbicidal rating: 3.0
[10]; rate 0.5000 kg/ha
  GLXMAW herbicidal rating: 3.0
[11]; rate 0.0313 kg/ha
  Herbicidal rating ECHORC: 1.0
[11]; rate 0.0625 kg/ha
  Herbicidal rating ECHORC: 1.0
[11]; rate 0.1250 kg/ha
  Herbicidal rating ECHORC: 3.5
[11]; rate 0.2500 kg/ha
  Herbicidal rating ECHORC: 4.0
[11]; rate 0.5000 kg/ha
  Herbicidal rating ECHORC: 4.5
[12]; 0.0313 kg/ha
  Herbicidal rating MOOVA: 4.0
[12]; 0.0625 kg/ha
  Herbicidal rating MOOVA: 9.0
[12]; 0.1250 kg/ha
  Herbicidal rating MOOVA: 9.0
[12]; 0.2500 kg/ha
  Herbicidal rating MOOVA: 9.0
[12]; 0.5000 kg/ha
  Herbicidal rating MOOVA: 9.0
[13]; rate 0.0157 kg/ha
  TRZAWR herbicidal rating: 1.5
[13]; rate 0.0313 kg/ha
  TRZAWR herbicidal rating: 2.5
[13]; rate 0.0625 kg/ha
  TRZAWR herbicidal rating: 3.0
[13]; rate 0.1250 kg/ha
  TRZAWR herbicidal rating: 2.5
[13]; rate 0.2500 kg/ha
  TRZAWR herbicidal rating: 2.5
[13]; rate 0.5000 kg/ha
  TRZAWR herbicidal rating: 3.0

## CN1C(=O)CS/C1=N/c1cc(-n2c(=O)cc(C(F)(F)F)n(C)c2=O)c(F)cc1Cl [Compound 7]
[1]; 0.0313 kg/ha
  Herbicidal rating ECHORC: 8.0
[1]; 0.0625 kg/ha
  Herbicidal rating ECHORC: 9.0
[1]; 0.1250 kg/ha
  Herbicidal rating ECHORC: 9.0
[1]; 0.2500 kg/ha
  Herbicidal rating ECHORC: 9.0
[2]; rate 0.0313 kg/ha
  Herbicidal rating SAGPY: 3.0
[2]; rate 0.0625 kg/ha
  Herbicidal rating SAGPY: 5.5
[2]; rate 0.1250 kg/ha
  Herbicidal rating SAGPY: 7.5
[2]; rate 0.2500 kg/ha
  Herbicidal rating SAGPY: 8.5
[3]; rate 0.0157 kg/ha
  AMBEL herbicidal rating: 5.0
[3]; rate 0.0313 kg/ha
  AMBEL herbicidal rating: 5.0
[3]; rate 0.0625 kg/ha
  AMBEL herbicidal rating: 7.0
[3]; rate 0.1250 kg/ha
  AMBEL herbicidal rating: 9.0
[4]; 0.0313 kg/ha
  Herbicidal rating SAGPY: 2.0
[4]; 0.0625 kg/ha
  Herbicidal rating SAGPY: 4.0
[4]; 0.1250 kg/ha
  Herbicidal rating SAGPY: 8.0
[4]; 0.2500 kg/ha
  Herbicidal rating SAGPY: 9.0
[5]; rate 0.0157 kg/ha
  ORYSAT preemergence herbicidal rating: 5.0
[5]; rate 0.0313 kg/ha
  ORYSAT preemergence herbicidal rating: 7.5
[5]; rate 0.0625 kg/ha
  ORYSAT preemergence herbicidal rating: 8.0
[5]; rate 0.1250 kg/ha
  ORYSAT preemergence herbicidal rating: 8.5
[5]; rate 0.2500 kg/ha
  ORYSAT preemergence herbicidal rating: 9.0
[6]; rate 0.0157 kg/ha
  GALAP herbicidal rating: 3.0
[6]; rate 0.0313 kg/ha
  GALAP herbicidal rating: 4.0
[6]; rate 0.0625 kg/ha
  GALAP herbicidal rating: 5.0
[6]; rate 0.1250 kg/ha
  GALAP herbicidal rating: 9.0
[7]; rate 0.0157 kg/ha
  SETVI preemergence herbicidal rating: 9.0
[7]; rate 0.0313 kg/ha
  SETVI preemergence herbicidal rating: 9.0
[7]; rate 0.0625 kg/ha
  SETVI preemergence herbicidal rating: 9.0
[7]; rate 0.1250 kg/ha
  SETVI preemergence herbicidal rating: 9.0
[7]; rate 0.2500 kg/ha
  SETVI preemergence herbicidal rating: 9.0
[8]; 0.0313 kg/ha
  Herbicidal rating CYPSE: 4.0
[8]; 0.0625 kg/ha
  Herbicidal rating CYPSE: 7.0
[8]; 0.1250 kg/ha
  Herbicidal rating CYPSE: 7.0
[8]; 0.2500 kg/ha
  Herbicidal rating CYPSE: 9.0
[9]; rate 0.0157 kg/ha
  CASOB herbicidal rating: 4.0
[9]; rate 0.0313 kg/ha
  CASOB herbicidal rating: 5.0
[9]; rate 0.0625 kg/ha
  CASOB herbicidal rating: 5.0
[9]; rate 0.1250 kg/ha
  CASOB herbicidal rating: 7.0
[10]; rate 0.0157 kg/ha
  GLXMAW herbicidal rating: 5.0
[10]; rate 0.0313 kg/ha
  GLXMAW herbicidal rating: 6.5
[10]; rate 0.0625 kg/ha
  GLXMAW herbicidal rating: 7.5
[10]; rate 0.1250 kg/ha
  GLXMAW herbicidal rating: 7.5
[11]; rate 0.0313 kg/ha
  Herbicidal rating ECHORC: 7.0
[11]; rate 0.0625 kg/ha
  Herbicidal rating ECHORC: 8.5
[11]; rate 0.1250 kg/ha
  Herbicidal rating ECHORC: 9.0
[11]; rate 0.2500 kg/ha
  Herbicidal rating ECHORC: 9.0
[12]; 0.0313 kg/ha
  Herbicidal rating MOOVA: 9.0
[12]; 0.0625 kg/ha
  Herbicidal rating MOOVA: 9.0
[12]; 0.1250 kg/ha
  Herbicidal rating MOOVA: 9.0
[12]; 0.2500 kg/ha
  Herbicidal rating MOOVA: 9.0
[14]; rate 0.0157 kg/ha
  GALAP preemergence herbicidal rating: 4.0
[14]; rate 0.0313 kg/ha
  GALAP preemergence herbicidal rating: 7.5
[14]; rate 0.0625 kg/ha
  GALAP preemergence herbicidal rating: 9.0
[14]; rate 0.1250 kg/ha
  GALAP preemergence herbicidal rating: 9.0
[14]; rate 0.2500 kg/ha
  GALAP preemergence herbicidal rating: 9.0
[13]; rate 0.0157 kg/ha
  TRZAWR herbicidal rating: 4.5
[13]; rate 0.0313 kg/ha
  TRZAWR herbicidal rating: 3.0
[13]; rate 0.0625 kg/ha
  TRZAWR herbicidal rating: 5.0
[13]; rate 0.1250 kg/ha
  TRZAWR herbicidal rating: 6.0
